One series relates to MDA MB 453 cells. The experiment in a line: MDA MB 453 breast cancer xenograft assay. Particulars: 30 mg/kg/day, daily for 28 days. Type of series: in vivo, female SCID Hairless Outbred (SHO) mice. How it is done:
Time release pellets (12.5 mg 5α-Dihydrotestosterone/60 days) were subcutaneously implanted into female SCID Hairless Outbred (SHO) mice. MDA MB 453 cells were grown in RPMI containing 10% FBS, 10 μg/ml insulin, 10 mM Sodium Pyruvate, 10 mM Non-Essential Amino Acids at 5% CO2, 37° C. Cells were spun down and re-suspended in 50% RPMI (serum free) and 50% Matrigel (BD, high concentration containing phenol red) at 1×10^7 cells/ml. MDA MB 453 cells were subcutaneously injected (100 μl/animal) on the right flank 2-3 days post pellet implantation. Tumor volume (length×width^2/2) was monitored bi-weekly. When tumors reached an average volume of ˜350 mm^3, animals were randomized and treatment was started. […] Tumor volume and body weight were monitored bi-weekly throughout the study. At the conclusion of the treatment period; plasma and tumor samples were taken for pharmacokinetic and pharmacodynamic analyses, respectively.

For the next series, the system named is LNCaP/AR cells. Put plainly: LNCaP/AR model for castrate resistant prostate cancer xenograft studies. The note with it: for Efficacy on LNCaP/AR tumors: monotherapy at or near maximally efficacious dose. In kind it is in vivo, male SCID Hairless Outbred mice. How it is done:
In some embodiments, overexpression of wild type androgen receptor 3-5 fold in the LNCaP (LNCaP/AR) cell line confers a castration resistant phenotype both in vitro and in vivo.
Six to Seven week old male SCID Hairless Outbred mice (SHO, Charles Rivers Laboratories) underwent bilateral orchiectomy under isoflurane anesthesia. LNCaP/AR cells were grown in RPMI at 5% CO2, 37° C. Cells were spun down and re-suspended in 50% serum-free RPMI and 50% Matrigel at 1×10^7 cells/ml. LNCaP/AR cells were subcutaneously injected (100 μl/animal) on the right flank 3-5 days post castration. Tumor volume (length×width^2/2) was monitored weekly. When tumors reached an average volume of ˜200 mm^3 animals were randomized into treatment groups. During the treatment period tumor volume was monitored bi-weekly. At the termination of the study, tumors were collected and stored for further analyses. All compounds were administered daily by oral gavage. Statistical analyses were performed using Graphpad Prism.

Series [1] has as its system PTEN KO model of prostate cancer. Put plainly: PTEN KO genetically engineered mouse model of prostate cancer. Type of series: in vivo, mice. The note with it: for Efficacy: combined androgen blockade (castration + anti-androgen). How it is done: Ptenlox/lox; PB-Cre mice (age 6-8 months) are imaged by small animal MRI imaging core prior to and at the completion of treatment. All mice are castrated. Surgical castration is performed under anesthesia with isoflurane. Mice are monitored postoperatively for recovery.
Mice are administered control vehicle or test article by oral gavage daily Monday through Friday schedule for a total of 35 days. MRI tumor volumes are reported for each mouse at time point zero (T0) at initiation of study and time point 35 days (T35) at completion of study. Changes in tumor volumes between T0 and T35 are calculated for individual mice and reported in waterfall plots. At study end, mice were euthanized by CO2 asphyxiation, and tissue was collected for histology, mRNA analysis, protein analysis and other analyses.

The test system of another series is metastatic CRPC. The experiment in a line: Phase II clinical trial, metastatic CRPC (treatment-naïve and post-abiraterone acetate cohorts). Type of series: in vivo, human. Particulars: for Patients with 12-week PSA decline of ≧50% from baseline: preliminary. The source says: (§1) The primary objective was to assess antitumor activity and PSA kinetics as defined by the Prostate Cancer Clinical Trials Working Group (PCWG2) criteria. […] The median time to PSA progression was not reached for the TN cohort during the preliminary 12-week period, and was 16 weeks in the PA cohort.

The subject of another series is non-metastatic CRPC. The experiment in a line: Phase II clinical trial, non-metastatic CRPC. Type of series: in vivo, human. The note with it: 240 mg/day.
Excerpt: as §1
The median time to PSA progression was not reached in this observed time period.

Series [2] deals with non-castrate hormone-sensitive and bicalutamide-resistant human prostate cancer xenograft models. The note with it: in vivo; cited from earlier work.
The target of a further series is T1, T877A AR mutant (Homo sapiens, UniProt P10275, T878A).
T1 sequence (P10275 1-920 T878A): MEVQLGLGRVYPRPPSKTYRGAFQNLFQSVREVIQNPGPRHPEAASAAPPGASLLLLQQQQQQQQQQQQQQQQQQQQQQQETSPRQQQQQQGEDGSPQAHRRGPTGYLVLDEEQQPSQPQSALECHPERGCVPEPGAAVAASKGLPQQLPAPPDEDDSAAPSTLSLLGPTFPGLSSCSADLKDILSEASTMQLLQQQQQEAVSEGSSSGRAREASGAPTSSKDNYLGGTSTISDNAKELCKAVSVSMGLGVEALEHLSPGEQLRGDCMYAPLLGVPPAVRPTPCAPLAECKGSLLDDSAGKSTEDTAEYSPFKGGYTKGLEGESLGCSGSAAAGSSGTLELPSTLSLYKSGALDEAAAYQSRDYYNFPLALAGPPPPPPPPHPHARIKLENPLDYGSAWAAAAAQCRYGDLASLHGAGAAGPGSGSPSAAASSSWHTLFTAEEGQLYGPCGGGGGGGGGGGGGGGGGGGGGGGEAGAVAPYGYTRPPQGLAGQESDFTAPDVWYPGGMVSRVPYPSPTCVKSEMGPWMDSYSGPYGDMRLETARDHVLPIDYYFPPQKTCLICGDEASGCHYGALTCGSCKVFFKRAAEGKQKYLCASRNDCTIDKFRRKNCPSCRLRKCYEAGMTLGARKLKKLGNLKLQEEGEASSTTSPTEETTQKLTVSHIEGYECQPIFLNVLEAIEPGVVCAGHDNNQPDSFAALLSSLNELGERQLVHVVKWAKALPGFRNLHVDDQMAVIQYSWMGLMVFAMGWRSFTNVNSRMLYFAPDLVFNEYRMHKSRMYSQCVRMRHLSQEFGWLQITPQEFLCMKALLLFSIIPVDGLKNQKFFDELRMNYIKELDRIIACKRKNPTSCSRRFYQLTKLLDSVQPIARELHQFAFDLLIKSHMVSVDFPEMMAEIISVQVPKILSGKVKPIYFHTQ
The note with it: cited from earlier work.

For the compound `CNC(=O)c1ccc(N2C(=S)N(c3cnc(C#N)c(C(F)(F)F)c3)C(=O)C23CCC3)cc1F` [4-[7-(6-cyano-5-trifluoromethylpyridin-3-yl)-8-oxo-6-thioxo-5,7-diazaspiro[3.4]oct-5-yl]-2-fluoro-N-methylbenzamide], the results for the “Number of Tumor Regressions” value in the series with MDA MB 453 cells (+DHT) and with MDA MB 453 cells (−DHT) were 9/9 and 5/10, respectively. For the same compound, the “Mean tumor response of LNCaP/AR tumors” value in the series with LNCaP/AR cells (1 mg/kg/day) is “tumor stasis”. In addition, the “Tumor response of LNCaP/AR tumors” value with LNCaP/AR cells (10-30 mg/kg/day) was “nearly full regression of all treated LNCaP/AR tumors”. The “Number of regressions > 50%” value is reported as 2/10 in the series with LNCaP/AR cells (Table 4, 3 mg/kg/day alone, oral gavage daily) and 1/10 in the series on LNCaP/AR cells (Table 5, 3 mg/kg/day alone, oral gavage daily). For the same compound, the Efficacy entry in series [1] is recorded as “minimal efficacy”. Further, the Tolerability result with metastatic CRPC (240 mg oral, continuous daily dosing, NM-CRPC, TN mCRPC and post-abiraterone mCRPC) is reported as “very well tolerated”. The “Patients with 12-week PSA decline of ≧50% from baseline” value with metastatic CRPC (PA cohort, 240 mg oral, continuous daily dosing) is given as 29%; in the series on metastatic CRPC (TN cohort, 240 mg oral, continuous daily dosing), 88%. In addition, the “Median time to PSA progression” value is 16 weeks with metastatic CRPC (PA cohort, 240 mg/day); “not reached” with metastatic CRPC (TN cohort, preliminary 12-week period, 240 mg/day); “not reached” in the series on non-metastatic CRPC (observed time period). In the series on metastatic CRPC (TN patients with measurable disease at baseline, 240 mg/day), the “Objective response rate (by RECIST)” value is reported as 63%. Also, the “Patients with ≧50% decline in PSA as compared to baseline” value in the series on non-metastatic CRPC (12 weeks of treatment) is listed as 91%. Also, the “Patients with ≧50% decline in PSA” value in the series on non-metastatic CRPC (24 weeks) amounted to 91%. In addition, the “Patients with ≧90% decline in PSA” value in the series on non-metastatic CRPC (24 weeks) was 55%. Besides, the Tumor response entry in series [2] is on record as “partial or complete tumor regression”.

For the compound `Cn1c(=O)n(-c2ccc(C(C)(C)C#N)cc2)c2c3cc(-c4cnc5ccccc5c4)ccc3ncc21` [BEZ-235], the Anti-tumor activity entry in series [1] (monotherapy) is given as “minimal anti-tumor activity”.

For `Nc1cc(C(F)(F)F)c(-c2cc(N3CCOCC3)nc(N3CCOCC3)n2)cn1` [BKM120, 5-(2,6-dimorpholinopyrimidin-4-yl)-4-(trifluoromethyl)pyridin-2-amine], the “Number of regressions > 50%” value was 1/10 in the series on LNCaP/AR cells (Table 4, BKM120 20 mg/kg alone) and 0/9 with LNCaP/AR cells (Table 4, BKM120 40 mg/kg alone). Further, the “Efficacy on LNCaP/AR tumors” value in the series with LNCaP/AR cells is “a range of efficacy from tumor growth inhibition to tumor stasis”.

For `CO[C@H]1C[C@@H]2CC[C@@H](C)[C@@](O)(O2)C(=O)C(=O)N2CCCC[C@H]2C(=O)O[C@H]([C@H](C)C[C@@H]2CC[C@@H](OCCO)[C@H](OC)C2)CC(=O)[C@H](C)/C=C(\C)[C@@H](O)[C@@H](OC)C(=O)[C@H](C)C[C@H](C)/C=C/C=C/C=C/1C` [Everolimus], the “Number of regressions > 50%” value with LNCaP/AR cells (Table 5, Everolimus 5 mg/kg/day alone) is reported as 0/8; in the series on LNCaP/AR cells (Table 5, Everolimus 10 mg/kg/day alone), 2/10. The “Efficacy on LNCaP/AR tumors” value in the series with LNCaP/AR cells is given as “a range of efficacy from tumor growth inhibition to tumor stasis”.

For the compound `CNC(=O)c1ccc(N2C(=S)N(c3ccc(C#N)c(C(F)(F)F)c3)C(=O)C2(C)C)cc1F` [MDV3100, 4-(3-(4-cyano-3-(trifluoromethyl)phenyl)-5,5-dimethyl-4-oxo-2-thioxoimidazolidin-1-yl)-2-fluoro-N-methylbenzamide], in series [1], the Efficacy result is “minimal efficacy”.

With `COc1ccc(Cl)c(Nc2nc3ccccc3nc2NS(=O)(=O)c2cccc(NC(=O)C(C)(C)N)c2)c1` [SAR245408], in the series with LNCaP/AR cells, the “Efficacy on LNCaP/AR tumors” value is on record as “a range of efficacy from tumor growth inhibition to tumor stasis”.

Take `CC(C)(O)C(=O)Nc1ccc([N+](=O)[O-])c(C(F)(F)F)c1` [hydroxyflutamide]: the Agonist activity entry at T877A AR mutant is “act as AR agonists”.

The values are drawn from US9340524B2, “Androgen receptor modulator and uses thereof” (Aragon Pharmaceuticals, Inc., priority 2013, dated 2016).
